What was measured:
Format in all cases: cell-based
human CXCR3A = human CXCR3A (Homo sapiens (Human), UniProt P49682); test: FLIPR assay (calcium flux, CXCL10-induced); settings: CHO-K1 cells expressing human CXCR3A coupled to Galpha(16); CXCL10 agonist at 20 nM
Procedure: The bioactivity of compounds is tested in a fluorometric imaging plate reader (FLIPR: Molecular Devices) using engineered CHO-K1 cells expressing the human CXCR3A (GenBank: AY242128) coupled to a G protein (Galpha(16)). Cells are plated the day prior to bioassay in F12 medium supplemented with 10% FBS and G418 and hygromycin antibiotics to maintain recombinant selection. At the day of bioassay, cells are washed and dye loaded for one hour with Fluo-4-AM (Invitrogen) in Hanks Balanced Salt Solution (Invitrogen), buffered with 20 mM Hepes at pH 7.4 and sodium bicarbonate (0.038%), containing 5 mM probenecid. This buffer, but lacking the dye and containing probenecid at a concentration of 2.5 mM, is also used for washing steps (wash buffer); or lacking both dye and probenecid but supplemented with 0.1% BSA for compound dilution steps (dilution buffer). Cells are washed free of excess dye and 60 microliter of wash buffer is added. Stock solutions of test compounds are made up at a concentration of 10 mM in DMSO, and serially diluted in dilution buffer to concentrations required for inhibition dose response curves. After a 10 minute incubation period at 37° C., 10 microliters of each compound dilution are transferred from a compound plate to the plate containing the recombinant cells in the FLIPR instrument according to the manufacturer's instructions. Following basal readings, 10 microliter CXCL10 agonist at a concentration of 20 nM (from Peprotech) is added, again using the FLIPR instrument. Changes in fluorescence are monitored before and after addition of the test compounds. Emission peak values above base level after CXCL10 addition are exported after base line subtraction.
(§1) The calculated IC50 values may fluctuate depending on the daily assay performance. Fluctuations of this kind are known to those skilled in the art. In the case where IC50 values have been determined several times for the same compound, mean values are given. Data for the FLIPR assay are shown in Table 1 and for the receptor internalization assay (RIA) in Table 2.

CXCR3 = CXCR3 (Homo sapiens (Human), UniProt P49682); test: Receptor internalization assay (RIA) in human whole blood; settings: final CXCL10 9 nM, CXCR3 surface expression on CD4 positive cells
Procedure: Stock solutions of test compounds are made up at a concentration of 10 mM in DMSO, and serially diluted in PBS containing 0.5% BSA to concentrations required for inhibition dose response curves. Diluted compounds are then mixed with an equal volume of CXCL10 (Peprotech) diluted in PBS. Anticoagulated venous human whole blood is added to the mixture, which is then incubated in a CO2 incubator at 37° C. to allow for ligand mediated receptor internalization (final CXCL10 concentration is 9 nM). After 30 min, the blood is mixed with fluorescently labeled CXCR3 and CD4 specific antibodies (Becton Dickinson) and incubated on ice for 10 minutes. Samples are then mixed with BD FACS Lysing Solution (Becton Dickinson) in order to eliminate red blood cells. After washing the cells with PBS containing 0.5% BSA, the samples are then analyzed in a flow cytometer (FACS Canto II, Becton Dickinson). For data analysis using FACSDiva software (Becton Dickinson), the mean fluorescence corresponding to CXCR3 cell surface expression was determined on CD4 positive cells.
as §1

hERG K channel = hERG K channel (Homo sapiens (Human), UniProt Q12809); test: hERG Q-Patch assay; settings: CHO cells expressing hERG, K+ tail current
Procedure: Compounds are evaluated for block of the hERG K channel using CHO cells stably expressing the hERG gene (accession number U04270, bSys, Witterswil, Switzerland) and the QPatch robotic platform (Sophion, Ballerup, Denmark) in single-cell mode at room temperature. Cells are grown in culture flasks at 37° C. in 5% CO2, in culture medium (Ham's F-12 Nutrient Mixture, Invitrogen 21765-029) supplemented with 9% (v/v) fetal calf serum, 0.9% Penicillin/Streptomycin (10,000 U/mL, Invitrogen 15140148), 100 μg/mL Hygromycin B (Invitrogen 10687010). When the cells are ˜80% confluent (every 2-3 days), they are either split for further culture or used for electrophysiology. For further culture, cells are detached with 0.25% Trypsin EDTA solution (Invitrogen 25200-056) and a fraction of the cells (10-30%) is reseeded in culture medium. For electrophysiology, on the experimental day, cells are detached with 0.25% Trypsin EDTA solution and all cells are suspended in suspension medium (293 SFM II, Invitrogen 11686-029) supplemented with 20 mM HEPES and 0.04 mg/mL Trypsin inhibitor. Cells are kept in suspension medium at 32-35° C. in the QPatch robot until use, at which time aliquots are transferred to the extracellular solution (in mM: NaCl 150; KCl 4; CaCl2 1.2; MgCl2 1; HEPES 10; pH 7.4 with NaOH) containing 0.3% v/v DMSO and applied to the test plates. K+ currents are measured with the patch-voltage-clamp technique in the whole-cell configuration with the internal solution (in mM: KCl, 140; NaCl, 10; MgCl2, 1; HEPES, 10; EGTA, 5; pH=7.2 with KOH). Currents are low-pass filtered using the internal Bessel filter of the QPatch robot with a cut-off frequency of 2 kHz and are digitized at 10 kHz. K^+ tail currents are produced from a holding voltage of −80 mV by a 500-ms depolarization to +20 mV followed by a 500-ms repolarization to −40 mV; tail current amplitudes are measured at the end of the repolarization to −40 mV. The pulse pattern is repeated every 10 sec during the experiment, baseline K^+ current is measured after 3 min in extracellular solution, test-solution containing compound is then applied, and K^+ current in presence of compound is measured 3 minutes after application to the cells. The respective test-solution is prepared by (1) dissolving the test-compound in pure DMSO, (2) diluting this DMSO solution in extracellular solution, and (3) adding further DMSO, such that the final test-solution has a concentration of either 300 nM or 3000 nM of the test-compound and contains 0.3% v/v DMSO. Compound effects are quantified as % block by dividing the current in presence of compound by the baseline current; two or three experiments are performed for each compound and the final value represents the mean of the results of each experiment.

CXCR3, sequence (P49682 whole entry): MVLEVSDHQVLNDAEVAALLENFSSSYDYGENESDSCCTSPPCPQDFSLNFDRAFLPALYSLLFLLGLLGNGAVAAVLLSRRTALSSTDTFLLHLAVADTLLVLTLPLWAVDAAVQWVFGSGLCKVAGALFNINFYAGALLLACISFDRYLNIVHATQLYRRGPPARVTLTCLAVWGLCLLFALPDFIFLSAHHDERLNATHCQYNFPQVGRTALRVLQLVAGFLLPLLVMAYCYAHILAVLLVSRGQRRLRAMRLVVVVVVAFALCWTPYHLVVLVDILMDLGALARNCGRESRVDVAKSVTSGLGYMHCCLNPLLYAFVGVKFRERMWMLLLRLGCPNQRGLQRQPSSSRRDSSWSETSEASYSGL
human CXCR3A, sequence (P49682 whole entry): as above
hERG K channel, sequence (Q12809 whole entry): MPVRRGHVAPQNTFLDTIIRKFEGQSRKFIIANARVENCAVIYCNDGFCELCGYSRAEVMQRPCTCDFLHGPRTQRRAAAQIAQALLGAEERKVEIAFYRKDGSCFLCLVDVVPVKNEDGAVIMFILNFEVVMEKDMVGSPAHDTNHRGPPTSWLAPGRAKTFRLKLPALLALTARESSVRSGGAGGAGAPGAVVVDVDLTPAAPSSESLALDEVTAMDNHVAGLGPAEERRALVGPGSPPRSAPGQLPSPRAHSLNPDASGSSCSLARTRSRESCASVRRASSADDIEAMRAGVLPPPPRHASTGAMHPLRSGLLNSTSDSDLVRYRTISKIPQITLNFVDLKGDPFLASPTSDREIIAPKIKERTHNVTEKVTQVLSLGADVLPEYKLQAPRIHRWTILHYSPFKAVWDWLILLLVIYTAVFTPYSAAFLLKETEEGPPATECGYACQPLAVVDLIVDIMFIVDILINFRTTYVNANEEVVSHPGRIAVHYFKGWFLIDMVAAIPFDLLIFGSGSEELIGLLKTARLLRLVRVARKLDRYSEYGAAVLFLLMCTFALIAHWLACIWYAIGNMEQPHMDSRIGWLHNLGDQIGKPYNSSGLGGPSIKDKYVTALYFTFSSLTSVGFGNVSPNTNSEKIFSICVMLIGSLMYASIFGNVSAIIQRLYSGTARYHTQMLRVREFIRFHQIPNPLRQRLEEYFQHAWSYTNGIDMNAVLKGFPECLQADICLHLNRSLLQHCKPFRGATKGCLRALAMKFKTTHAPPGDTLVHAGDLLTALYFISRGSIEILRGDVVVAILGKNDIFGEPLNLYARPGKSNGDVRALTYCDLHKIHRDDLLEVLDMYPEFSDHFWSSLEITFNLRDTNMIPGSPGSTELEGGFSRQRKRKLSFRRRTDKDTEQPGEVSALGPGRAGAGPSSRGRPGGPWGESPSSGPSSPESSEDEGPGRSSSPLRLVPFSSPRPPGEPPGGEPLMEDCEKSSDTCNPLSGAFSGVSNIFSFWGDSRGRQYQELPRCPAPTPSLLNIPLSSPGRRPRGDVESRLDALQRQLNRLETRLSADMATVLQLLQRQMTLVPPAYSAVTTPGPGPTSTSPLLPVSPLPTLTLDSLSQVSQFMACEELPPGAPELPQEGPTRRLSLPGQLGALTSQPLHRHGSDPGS

`C[C@@H]1CN(c2sc(C(F)(F)F)nc2-c2cnc(C(F)(F)F)nc2)CCN1C(=O)Cn1cnc(C(C)(C)O)n1` [Example 13, 2-[3-(1-Hydroxy-1-methyl-ethyl)-[1,2,4]triazol-1-yl]-1-{(R)-2-methyl-4-[2-trifluoromethyl-4-(2-trifluoromethyl-pyrimidin-5-yl)-thiazol-5-yl]-piperazin-1-yl}-ethanone] was tested, and the IC50 (human CXCR3A) was 3.2 nM, the IC50 (CXCR3) was 830 nM and the “% block” value (hERG K channel; concentration 300 nM) was 10%. The “% block” value (hERG K channel; concentration 3000 nM) was 21%.
For `COCc1ncn(CC(=O)N2CCN(c3sc(C(F)(F)F)nc3-c3cnc(C4CC4)nc3)C[C@H]2C)n1` [Example 18, 1-{(R)-4-[4-(2-Cyclopropyl-pyrimidin-5-yl)-2-trifluoromethyl-thiazol-5-yl]-2-methyl-piperazin-1-yl}-2-(3-methoxymethyl-[1,2,4]triazol-1-yl)-ethanone], the IC50 (human CXCR3A) was 3.1 nM, the IC50 (CXCR3) was 1390 nM and the “% block” value (hERG K channel; concentration 300 nM) was 10%. For the same compound, the “% block” value (hERG K channel; concentration 3000 nM) was 22%.
With `Cc1ncn(CC(=O)N2CCN(c3sc(C(F)(F)F)nc3-c3cnc(C(F)(F)F)nc3)C[C@H]2C)n1` [Example 20, 2-(3-Methyl-[1,2,4]triazol-1-yl)-1-{(R)-2-methyl-4-[2-trifluoromethyl-4-(2-trifluoromethyl-pyrimidin-5-yl)-thiazol-5-yl]-piperazin-1-yl}-ethanone] the IC50 (human CXCR3A) was 1.6 nM, the IC50 (CXCR3) was 189 nM and the “% block” value (hERG K channel; concentration 300 nM) was 2%. For the same compound, the “% block” value (hERG K channel; concentration 3000 nM) was 18%.
In the case of `C[C@@H]1CN(c2sc(C(F)(F)F)nc2-c2cnc(C(F)(F)F)nc2)CCN1C(=O)Cn1cnc(C(C)(C)C)n1` [Example 8, 2-(3-tert-Butyl-[1,2,4]triazol-1-yl)-1-{(R)-2-methyl-4-[2-trifluoromethyl-4-(2-trifluoromethyl-pyrimidin-5-yl)-thiazol-5-yl]-piperazin-1-yl}-ethanone], the IC50 (human CXCR3A) is reported as 1.6 nM, the IC50 (CXCR3) is reported as 349 nM and the “% block” value (hERG K channel; concentration 300 nM) is reported as 4%. The “% block” value (hERG K channel; concentration 3000 nM) was 23%.
With `CCCc1ncn(CC(=O)N2CCN(c3sc(C(F)(F)F)nc3-c3cnc(C(F)(F)F)nc3)C[C@H]2C)n1` [Example 11, 1-{(R)-2-Methyl-4-[2-trifluoromethyl-4-(2-trifluoromethyl-pyrimidin-5-yl)-thiazol-5-yl]-piperazin-1-yl}-2-(3-propyl-[1,2,4]triazol-1-yl)-ethanone] the IC50 (human CXCR3A) was 4.4 nM, the IC50 (CXCR3) was 221 nM and the “% block” value (hERG K channel; concentration 300 nM) was 5%. The “% block” value (hERG K channel; concentration 3000 nM) was 30%.
In the case of `C[C@@H]1CN(c2sc(C(F)(F)F)nc2-c2cnc(C3CC3)nc2)CCN1C(=O)Cn1cnc(C(C)(C)C)n1` [Example 17, 2-(3-tert-Butyl-[1,2,4]triazol-1-yl)-1-{(R)-4-[4-(2-cyclopropyl-pyrimidin-5-yl)-2-trifluoromethyl-thiazol-5-yl]-2-methyl-piperazin-1-yl}-ethanone], the IC50 (human CXCR3A) is reported as 4.6 nM, the IC50 (CXCR3) is reported as 679 nM and the “% block” value (hERG K channel; concentration 300 nM) is reported as 0%. For the same compound, the “% block” value (hERG K channel; concentration 3000 nM) was 23%.
In the case of `CCOc1ncc(-c2nc(C(F)(F)F)sc2N2CCN(C(=O)Cn3cnc(CC)n3)[C@H](C)C2)cn1` [Example 2, 1-{(R)-4-[4-(2-Ethoxy-pyrimidin-5-yl)-2-trifluoromethyl-thiazol-5-yl]-2-methyl-piperazin-1-yl}-2-(3-ethyl-[1,2,4]triazol-1-yl)-ethanone], the IC50 (human CXCR3A) is reported as 1.6 nM, the IC50 (CXCR3) is reported as 235 nM and the “% block” value (hERG K channel; concentration 300 nM) is reported as −2%. The “% block” value (hERG K channel; concentration 3000 nM) was 4%.
In the case of `CC(O)c1ncn(CC(=O)N2CCN(c3sc(C(F)(F)F)nc3-c3cnc(C(F)(F)F)nc3)C[C@H]2C)n1` (stereo partly drawn) [Example 12, 2-[3-(1-Hydroxy-ethyl)-[1,2,4]triazol-1-yl]-1-{(R)-2-methyl-4-[2-trifluoromethyl-4-(2-trifluoromethyl-pyrimidin-5-yl)-thiazol-5-yl]-piperazin-1-yl}-ethanone], the IC50 (human CXCR3A) is reported as 0.9 nM, the IC50 (CXCR3) is reported as 564 nM and the “% block” value (hERG K channel; concentration 300 nM) is reported as 0%. For the same compound, the “% block” value (hERG K channel; concentration 3000 nM) was 4%.
For `Cc1ncn(CC(=O)N2CCN(c3sc(C(F)(F)F)nc3-c3cnc(C4CC4)nc3)C[C@H]2C)n1` [Example 21, 1-{(R)-4-[4-(2-Cyclopropyl-pyrimidin-5-yl)-2-trifluoromethyl-thiazol-5-yl]-2-methyl-piperazin-1-yl}-2-(3-methyl-[1,2,4]triazol-1-yl)-ethanone], the IC50 (human CXCR3A) was 5.2 nM, the IC50 (CXCR3) was 462 nM and the “% block” value (hERG K channel; concentration 300 nM) was 3%. The “% block” value (hERG K channel; concentration 3000 nM) was 17%.
`CCc1ncn(CC(=O)N2CCN(c3sc(C(F)(F)F)nc3-c3cnc(C4CC4)nc3)C[C@H]2C)n1` [Example 15, 1-{(R)-4-[4-(2-Cyclopropyl-pyrimidin-5-yl)-2-trifluoromethyl-thiazol-5-yl]-2-methyl-piperazin-1-yl}-2-(3-ethyl-[1,2,4]triazol-1-yl)-ethanone] was tested, and the IC50 (human CXCR3A) was 2.5 nM, the IC50 (CXCR3) was 190 nM and the “% block” value (hERG K channel; concentration 300 nM) was 3%. The “% block” value (hERG K channel; concentration 3000 nM) was 27%.
In the case of `CCOc1ncc(-c2nc(C(F)(F)F)sc2N2CCN(C(=O)Cn3cnc(C(C)(C)C)n3)[C@H](C)C2)cn1` [Example 3, 2-(3-tert-Butyl-[1,2,4]triazol-1-yl)-1-{(R)-4-[4-(2-ethoxy-pyrimidin-5-yl)-2-trifluoromethyl-thiazol-5-yl]-2-methyl-piperazin-1-yl}-ethanone], the IC50 (human CXCR3A) is reported as 1 nM, the IC50 (CXCR3) is reported as 552 nM and the “% block” value (hERG K channel; concentration 300 nM) is reported as 10%. The “% block” value (hERG K channel; concentration 3000 nM) was 20%.
In the case of `COCc1ncn(CC(=O)N2CCN(c3sc(C(F)(F)F)nc3-c3cnc(C(F)(F)F)nc3)C[C@H]2C)n1` [Example 9, 2-(3-Methoxymethyl-[1,2,4]triazol-1-yl)-1-{(R)-2-methyl-4-[2-trifluoromethyl-4-(2-trifluoromethyl-pyrimidin-5-yl)-thiazol-5-yl]-piperazin-1-yl}-ethanone], the IC50 (human CXCR3A) is reported as 2.7 nM, the IC50 (CXCR3) is reported as 606 nM and the “% block” value (hERG K channel; concentration 300 nM) is reported as 2%. The “% block” value (hERG K channel; concentration 3000 nM) was 11%.
In the case of `C[C@@H]1CN(c2sc(C(F)(F)F)nc2-c2cnc(C(F)(F)F)nc2)CCN1C(=O)Cn1cnc(CO)n1` [Example 10, 2-(3-Hydroxymethyl-[1,2,4]triazol-1-yl)-1-{(R)-2-methyl-4-[2-trifluoromethyl-4-(2-trifluoromethyl-pyrimidin-5-yl)-thiazol-5-yl]-piperazin-1-yl}-ethanone], the IC50 (human CXCR3A) is reported as 5.2 nM, the IC50 (CXCR3) is reported as 809 nM and the “% block” value (hERG K channel; concentration 300 nM) is reported as 6%. The “% block” value (hERG K channel; concentration 3000 nM) was 17%.

Source: US10047080B2, “(R)-2-methyl-piperazine derivatives as CXCR3 receptor modulators” (Idorsia Pharmaceuticals Ltd., priority 2015, dated 2018)
